Assay: recombinant UMI read abundance after kanamycin selection (control-corrected) (log10(CPM+1)); higher = more efficient recombination; extreme values may be limits of the assay; sequences stand for … in AGTGCAGAGAAAATCGGCCAGTTTTCTCTGCCTGCAGTCCGCATGCCGTGGGACCCCTTGGGTTCTAACCTGTTGCCTAGATTTATGCAGCGGACTGCCTTTCTCCCAAAGTGATAAACCGG…AGGTTGGTTTCACT; site = the 11-nt donor
Method in brief: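 The measure is log10(CPM+1) for recombinant UMIs. These were PCR-amplified across the donor–target junction and sequenced after Escherichia coli carrying a donor and donor-binding-loop pair library and a target plasmid with T7-inducible IS621 bridge recombinase was plated on IPTG (0.07 mM) plus kanamycin or unselected. CPM were averaged over two replicates and scaled by control-derived factors.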
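Also: IS621 bridge recombinase in Escherichia coli cells against a fixed T5 target plasmid.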

Row | Sequence | recombinant UMI read abundance (log10)
1 | AGTGGAACATGGACCGGTTTTCCCGGTAATCCGTATTTGTT (site GGTGGAACTAA) | 0.00617
2 | AGTGGAACATGGACCGGTTTTCCCGGTAATCCGTATTTGTT (site TGTGGAACTAA) | 0.00958
3 | AGTGGGTCATGGACCGGTTTTCCCGGTAATCCGTATTTGCA (site AGTGGGTCTTG) | 2.92
4 | AGTGTATCATGGACCGGTTTTCCCGGTAATCCGTATTTGCA (site ACAGTATCTTG) | 1.69
5 | AGTGTATCATGGACCGGTTTTCCCGGTAATCCGTATTTGCA (site AGTGTATCTTG) | 2.25
6 | AGTGTCACATGGACCGGTTTTCCCGGTAATCCGTATTTGGC (site AGTGTCACTGC) | 2.62
7 | AGTGTCTCATGGACCGGTTTTCCCGGTAATCCGTATTTGCA (site AGTGTCTCTTG) | 3.07
8 | AGTTAGACATGGACCGGTTTTCCCGGTAATCCGTATTTGAG (site AGTTAGACTCT) | 1.23
9 | AGTTAGACATGGACCGGTTTTCCCGGTAATCCGTATTTGAG (site CGTTAGACTCT) | 1.06
10 | AGTTAGACATGGACCGGTTTTCCCGGTAATCCGTATTTGAG (site GGTTAGACTCT) | 0.353
11 | AGTTAGACATGGACCGGTTTTCCCGGTAATCCGTATTTGAG (site TGTTAGACTCT) | 0.674
12 | AGTTATTCATGGACCGGTTTTCCCGGTAATCCGTATTTGCA (site AGTTATTCTTG) | 2.11
13 | AGTTCAGCATGGACCGGTTTTCCCGGTAATCCGTATTTGGG (site AGATCAGCTCC) | 0.0116
14 | AGTTCAGCATGGACCGGTTTTCCCGGTAATCCGTATTTGGG (site AGCTCAGCTCC) | 0.0322
15 | AGTTCAGCATGGACCGGTTTTCCCGGTAATCCGTATTTGGG (site AGGTCAGCTCC) | 0.0161
16 | AGTTCAGCATGGACCGGTTTTCCCGGTAATCCGTATTTGGG (site AGTTCAGCTCC) | 0.017
17 | AGTTCTGCATGGACCGGTTTTCCCGGTAATCCGTATTTGTT (site AGTTCTGCTAA) | 0.0478
18 | AGTTGATCATGGACCGGTTTTCCCGGTAATCCGTATTTGTC (site AGTTGATCTGA) | 1.94
19 | ATAAAATCATGGACCGGTTTTCCCGGTAATCCGTATTTGCC (site ATAAAATCTGG) | 1.66

Row | Sequence | recombinant UMI read abundance (log10)
20 | ATAAAGCCATGGACCGGTTTTCCCGGTAATCCGTATTTGAC (site ATAAAGCCTGT) | 0
21 | ATAAAGCCATGGACCGGTTTTCCCGGTAATCCGTATTTGAC (site ATAACGCCTGT) | 0
22 | ATAAAGCCATGGACCGGTTTTCCCGGTAATCCGTATTTGAC (site ATAAGGCCTGT) | 0
23 | ATAAAGCCATGGACCGGTTTTCCCGGTAATCCGTATTTGAC (site ATAATGCCTGT) | 0
24 | ATAACAACATGGACCGGTTTTCCCGGTAATCCGTATTTGAA (site ATAACAACTTT) | 1.46
25 | ATAACAGCATGGACCGGTTTTCCCGGTAATCCGTATTTGTT (site ATAACAGCTAA) | 1.92
26 | ATAACGCCATGGACCGGTTTTCCCGGTAATCCGTATTTGAC (site ATAAAGCCTGT) | 0
27 | ATAACGCCATGGACCGGTTTTCCCGGTAATCCGTATTTGAC (site ATAACGCCTGT) | 0.696
28 | ATAACGCCATGGACCGGTTTTCCCGGTAATCCGTATTTGAC (site ATAAGGCCTGT) | 0
29 | ATAACGCCATGGACCGGTTTTCCCGGTAATCCGTATTTGAC (site ATAATGCCTGT) | 0
30 | ATAAGACCATGGACCGGTTTTCCCGGTAATCCGTATTTGAC (site ATAAGACCTGT) | 0
31 | ATAAGACCATGGACCGGTTTTCCCGGTAATCCGTATTTGAC (site ATAAGCCCTGT) | 0
32 | ATAAGACCATGGACCGGTTTTCCCGGTAATCCGTATTTGAC (site ATAAGGCCTGT) | 0
33 | ATAAGACCATGGACCGGTTTTCCCGGTAATCCGTATTTGAC (site ATAAGTCCTGT) | 0
34 | ATAAGGCCATGGACCGGTTTTCCCGGTAATCCGTATTTGAC (site AAAAGGCCTGT) | 0
35 | ATAAGGCCATGGACCGGTTTTCCCGGTAATCCGTATTTGAC (site ACAAGGCCTGT) | 0
36 | ATAAGGCCATGGACCGGTTTTCCCGGTAATCCGTATTTGAC (site AGAAGGCCTGT) | 0
37 | ATAAGGCCATGGACCGGTTTTCCCGGTAATCCGTATTTGAC (site ATAAAGCCTGT) | 0
